What all share (assay): growth of human tumour cells (NCI), 48 h
Assay [1] has as its system LOX IMVI melanoma.
Assay [2] concerns SNB-75 CNS.
Assay [3] concerns DU-145 prostate.
In assay [4] the test system is NCI-H522 lung.
Assay [5] has as its system MALME-3M melanoma.
Assay [6] relates to MDA-MB-435.
Assay [7] relates to A498 renal.
Assay [8] has as its system IGROV1 ovarian.
In assay [9] the test system is RPMI-8226 leukemia.
The subject of assay [10] is NCI-H226 lung.

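Exposure lasted 48 hours, with cells grown in 96-well plates and compounds tested at five concentrations. The concentration for 50% growth inhibition is given as GI50. TGI denotes the concentration required for complete inhibition of growth.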 Bounds are passed on as bounds.

Take `CC(=O)OC1=CC2=CC[C@H]3[C@@H]4CCC(=O)[C@@]4(C)CC(=O)[C@]3(S)[C@@]2(C)CC1`: the TGI is 36 µM in [1]; greater than 100 µM in assay [2]; greater than 100 µM in assay [3]; 63 µM in assay [4]; 57.2 µM in [5]; greater than 100 µM in assay [6]. Also, the TGI in assay [7] was greater than 100 µM; in assay [8], greater than 100 µM; in assay [9], 53.5 µM.
As for `CC(C)(C)c1ccc(OC(=O)Nc2ccc(O)c(C(=O)O)c2)cc1`, the TGI in assay [1], in assay [2], in [3], in [10], in [4] and in assay [5] was greater than 100 µM each time. Besides, the TGI in assay [6], in [7], in assay [8] and in assay [9] was greater than 100 µM throughout.
`COc1ccc(S(=O)(=O)NC2=NCCN2C(=S)SN2CCn3c2nsc3=S)cc1`: the GI50 was 15.5 µM in assay [1]; 19.5 µM in [2]; 13.5 µM in [3]; 15.6 µM in [10]; 9.62 µM in assay [4]; 9.1 µM in assay [5]. Moreover, the GI50 in assay [6] was 14.8 µM; in assay [7] it was 19.9 µM; in [8] it was 30.6 µM; in assay [9], 14 µM. Further, the TGI in [1] was determined as 33.1 µM; in [2] it was 42.5 µM; in assay [3], 31.9 µM; in assay [10] it was 33.2 µM; in [4] it was 35 µM; in assay [5] it was 24.9 µM. In addition, the TGI in assay [6] was 43.9 µM; in assay [7], 51.1 µM; in assay [8], greater than 100 µM; in assay [9] it was 63.1 µM.
For `C=C1C(=O)O[C@H]2[C@H]1CC/C(COC(=O)CCSCCC(=O)OC/C1=C/CC[C@@]3(C)O[C@H]3[C@H]3OC(=O)C(=C)[C@@H]3CC1)=C\CC[C@@]1(C)O[C@@H]21`, the GI50 in assay [1] was 0.44 µM; in assay [3] it was 1.36 µM; in assay [10], 3 µM; in [4], 0.686 µM; in assay [5], 1.12 µM; in [6] it was 1.63 µM. For the same compound, the GI50 is 1.7 µM in assay [7], 1.3 µM in assay [8] and 0.383 µM in [9]. Further, the TGI in [1] amounted to 1.6 µM; in assay [3] it was 2.71 µM; in assay [10], 8.96 µM; in assay [4], 2.29 µM; in [5], 2.73 µM; in assay [6], 4.19 µM. The TGI came out at 4.78 µM in [7], 3.25 µM in assay [8] and 1.83 µM in [9].
As to `O=C(O)C1CC2(C1)CC(C(=O)O)C2` (stereo not given), the TGI in assay [1], in assay [2], in [3], in assay [4], in assay [5] and in assay [6] was greater than 100 µM throughout. Further, the TGI in assay [7], in assay [8] and in assay [9] was greater than 100 µM each time.
In the case of `Nc1nc(N)c(C=Nc2ccc(Br)cc2)c(Nc2ccc(Br)cc2)n1`, the GI50 in assay [1] was 3.01 µM; in assay [2], 5.02 µM; in assay [3], 12.3 µM; in assay [4], 8.2 µM; in assay [5], 17.8 µM; in assay [6] it was 10.5 µM. Besides, the GI50 was 10.6 µM in assay [7], 8.72 µM in assay [8] and 16.6 µM in [9]. Further, the TGI worked out at 16.4 µM in [1]; 18.6 µM in assay [2]; 28.6 µM in assay [3]; 33.2 µM in [4]; 39.7 µM in [5]; 27.6 µM in assay [6]. Besides, the values for the TGI in assay [7], in assay [8] and in assay [9] were 22.4 µM, 46.2 µM and 38.7 µM, respectively.
`Oc1ccc(O)c(-c2cc(-c3ccc(Cl)cc3)nn2-c2ccccc2)c1`: the GI50 in [3] was 26.1 µM; in assay [10], 5.97 µM; in assay [4], 2.4 µM; in assay [6], 14.9 µM; in assay [7] it was 0.755 µM; in assay [8] it was 9.95 µM. Further, the GI50 in [9] was 2.29 µM. In addition, the TGI was 48.3 µM in assay [3]; 24.3 µM in assay [10]; 5.44 µM in [4]; 32.1 µM in assay [6]; 13.8 µM in [7]; greater than 100 µM in [8]. Besides, the TGI in assay [9] turned out to be 7.03 µM.
In the case of `Cc1ccc(/C=C2\CN(C(=O)C(Cl)Cl)C/C(=C\c3ccc(C)cc3)C2=O)cc1`, the GI50 in assay [1] is 0.0621 µM; in assay [2], 0.573 µM; in [3], 0.326 µM; in assay [10] it was 0.245 µM; in assay [5], 0.35 µM; in assay [6], 0.197 µM. Further, the GI50 was 0.203 µM in assay [7], 0.18 µM in [8] and 0.0322 µM in [9]. Moreover, the TGI in assay [1] worked out at 0.199 µM; in assay [2], 2.9 µM; in assay [3] it was 1.28 µM; in assay [10], 0.622 µM; in [5] it was 2.04 µM; in assay [6] it was 0.408 µM. Moreover, the TGI in [7] was determined as 0.79 µM; in [8], 0.367 µM; in assay [9] it was 0.484 µM.
Consider `Nc1cc(O)ccc1N=Nc1ccc(-c2nc3ccccc3[nH]2)cc1`, for which the GI50 in assay [1] was 7.6 µM; in assay [2], greater than 100 µM; in assay [3], greater than 100 µM; in assay [10], greater than 100 µM; in [4] it was 34.2 µM; in assay [6], 17.1 µM. In addition, the GI50 in [8] was 19.7 µM; in [9], 30.2 µM. Further, the TGI is 37.1 µM in assay [1]; greater than 100 µM in assay [2]; greater than 100 µM in assay [3]; greater than 100 µM in assay [10]; greater than 100 µM in assay [4]; 73.5 µM in assay [6]. For the same compound, the values for the TGI in assay [8] and in [9] were greater than 100 µM and 94.6 µM, respectively.
Regarding `Cc1cc(S(=O)(=O)/N=C/N(C)C)c(SC(=O)c2ccc(Cl)cc2)cc1Cl`, the GI50 in assay [1] was 19.1 µM; in [3], 19.1 µM; in [10], 27.8 µM; in assay [4], 47.9 µM; in assay [6], 25.1 µM; in assay [8], 38.5 µM. Moreover, the GI50 in assay [9] is 25.4 µM. In addition, the TGI in [1] is 35.2 µM; in [3] it was greater than 100 µM; in [10], 87.2 µM; in assay [4], greater than 100 µM; in assay [6] it was 70.4 µM; in assay [8] it was greater than 100 µM. This compound came in with a TGI in assay [9] of 80.6 µM.
Consider `Cc1cn(C2C=CC(CO)O2)c(=O)[nH]c1=O` (stereo not given), for which the TGI in assay [1], in assay [2], in assay [3], in assay [10], in assay [4] and in assay [5] was greater than 1000 µM each time. For the same compound, the TGI in [6], in [8] and in [9] was greater than 1000 µM throughout.
Take `COC(=O)C1OC2(CCCC3CC32)O[C@H]1C(=O)OC` (stereo not given in full): the TGI in assay [1], in assay [2], in assay [3], in [10], in assay [4] and in assay [5] was greater than 100 µM in each case. The TGI in assay [6], in assay [8] and in assay [9] was greater than 100 µM in each case.
As for `Clc1ccc(-c2csc(Nc3cccc(-c4csc(-c5ccccc5)n4)c3)n2)cc1`, the GI50 was 3.53 µM in [1]; 9.15 µM in [3]; 10.2 µM in assay [4]; 9.05 µM in assay [6]; 15.9 µM in assay [7]; 13.5 µM in [8]. In [9], the GI50 is 19.2 µM. Moreover, the TGI in assay [1] came out at 9.79 µM; in assay [3], 17.5 µM; in assay [4], 23.5 µM; in assay [6], 21.6 µM; in assay [7], 28.3 µM; in assay [8], 39 µM. In assay [9], this compound came in with a TGI greater than 50 µM.
For the compound `O=C(CN1CCN(c2cc3c(cc2F)c(=O)c(C(=O)O)cn3C2CC2)CC1)Nc1nc(-c2ccc(Cl)cc2)cs1`, the GI50 in assay [1] is 3.39 µM; in assay [2], 3.71 µM; in assay [3], 4.03 µM; in [10], 5 µM; in [4], 3.15 µM; in [5] it was 3.19 µM. The GI50 in [6] is 3.85 µM; in assay [8], 7.91 µM; in assay [9], 3.21 µM. In addition, the TGI in assay [1] was 19 µM; in assay [2], greater than 100 µM; in assay [3] it was 28.4 µM; in assay [10], greater than 100 µM; in assay [4], 30.4 µM; in assay [5], 11.1 µM. Also, the TGI in assay [6] is 94 µM; in [8], greater than 100 µM; in assay [9] it was greater than 100 µM.
On to `COc1cc(OC)c2nccc(NCCCN(C)C)c2c1[N+](=O)[O-]`, for which the TGI in assay [1], in assay [2], in assay [3], in assay [4], in assay [5] and in assay [6] was greater than 100 µM each time. The TGI in assay [7], in [8] and in assay [9] was greater than 100 µM in each case.

Source of the values: PubChem BioAssay (NCI).
